The term IC50 denotes the midpoint of a concentration-inhibition curve. The low end stands for greater potency, the high end for weaker potency. What is called inhibition is the drop in the measured response relative to a control, in per cent. Read a low inhibition as little suppression.

For experiment [1], the system named is KRas-mediated phosphorylation of ERK in H727 cells. Description: Inhibition of KRas-mediated phosphorylation of ERK (Cisbio HTRF pERK), H727 cells. The experiment is classed as cell-based. To be noted: for IC50: HTRF pERK. Put shortly:
(§1)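 Cells were seeded at 6,000 per well and treated for 3 hrs with compound in a 10-dose, 3-fold series from 10 uM (0.8% final DMSO), with 0.2 uM Trametinib as Min control. Lysates made at 4° C over 40 mins were incubated 2 hrs at room temperature with d2- and Cryptate-labelled antibodies, then read by HTRF.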
For orientation: TR-FRET usually uses a lanthanide donor and a delayed reading to cut background.

Experiment [2] deals with KRas-mediated phosphorylation of ERK in H460 cells. Description: Inhibition of KRas-mediated phosphorylation of ERK (Cisbio HTRF pERK), H460 cells. The experiment is classed as cell-based. To be noted: Homo sapiens. The protocol: (§2) Inhibition of KRas Phosphorylation of ERK (HTRF) by Exemplary Compounds of Formula (I) Cisbio HTRF Advanced PERK Assay Catalog #64[…] […] Add 10 mL of media to stop trypsinizing. Pipette the cells into a conical bottom 50 mL centrifuge tube and centrifuge 5 min×1000 rpm. […] Re-suspend the cell pellet in media, take a cell count, and then adjust the cell density using fresh media. […] Seed 6,000 cells into cell culture plate with 50 μL media. […] Use Tecan to complete the compound addition. Compounds start from 10 uM top, 3-fold dilution, and 10 doses. The final DMSO concentration is 0.8%. Dispensed 0.2 uM Trametinib as Min control. […] Incubate cell plate for 3 hrs in the incubator. […] Dilute 1 volume of 4× lysis buffer with 3 volumes of deionized water. […] Keep lysis buffer on the ice. […] At the end of the compound treatment, flick-off the media. […] Add 35 μL of lysis buffer per well using a Multidrop Combi. Then place on a plate agitator shaking at 300 rpm at 4° C. for 40 mins. […] Make up the HTRF antibody buffer. For each assay plate, mix 50 μL of d2-conjugate antibody with 950 μL of detection buffer. Similarly, mix 50 μL of Cryptate antibody with 950 μL of detection buffer. Then mix the two diluted antibodies together. […] Dispense 3.4 μL the antibody buffer to wells of an empty assay plate. Seal the plate and centrifuge plate 30 sec×1000 rpm. […] At the end of the 4° C. lysis, centrifuge the lysate plates 3 mins×1500 rpm. […] Use the Bravo to transfer 13.6 μL of lysate from cell culture plate to assay plate. Then incubate assay plate for 2 hrs at room temperature. 8. At the end of incubation, read plate on the Envision after centrifuging plate 30 sec×1000 rpm.

Experiment [3] concerns KRas-mediated phosphorylation of ERK in AsPC-1 cells. Description: Inhibition of KRas-mediated phosphorylation of ERK (Cisbio HTRF pERK), AsPC-1 cells. The experiment is classed as cell-based. To be noted: for IC50: HTRF pERK. The gist of the method:
as §1

The test system of experiment [4] is KRas-mediated phosphorylation of ERK in A549 cells. Description: Inhibition of KRas-mediated phosphorylation of ERK (Cisbio HTRF pERK), A549 cells. The experiment is classed as cell-based. The following applies: Homo sapiens, HTRF pERK. The protocol: as §2
The next experiment addresses T1, KRas^G12V (Homo sapiens, UniProt P01116, G12V).
T1 construct: Biotinylated KRas (corresponding to amino acids 1-169, produced at Accelegan Inc.); biotin (biotinylated); purchased Accelegan Inc
Description: KRas binding assay (TR-FRET tracer displacement), KRas G12V.

A further experiment addresses T2, KRas^G12D (Homo sapiens, UniProt P01116, G12D).
T2 construct: Biotinylated KRas (corresponding to amino acids 1-169, produced at Accelegan Inc.); biotin (biotinylated); purchased Accelegan Inc
The experiment can be described thus: KRas binding assay (TR-FRET tracer displacement), KRas G12D.

Another experiment deals with T3, KRas^G12R (Homo sapiens, UniProt P01116, G12R).
T3 construct: Biotinylated KRas (corresponding to amino acids 1-169, produced at Accelegan Inc.); biotin (biotinylated); purchased Accelegan Inc
The experiment can be described thus: KRas binding assay (TR-FRET tracer displacement), KRas G12R.

For experiment [5], the system named is KRas-mediated phosphorylation of ERK in HCT116 cells. The experiment can be described thus: Inhibition of KRas-mediated phosphorylation of ERK (Cisbio HTRF pERK), HCT116 cells. The experiment is classed as cell-based. The following applies: Homo sapiens, HCT-116, 3 h, single point, 100 nM compound, 3 hrs. As to the method: as §2
Setting [6] is: Homo sapiens, NCI-H727, H727 cells.
The mark [7] stands for this setting: Homo sapiens, ASPC1, AsPC-1 cells.

T2 sequence (P01116 1-169 isoform P01116-2 G12D): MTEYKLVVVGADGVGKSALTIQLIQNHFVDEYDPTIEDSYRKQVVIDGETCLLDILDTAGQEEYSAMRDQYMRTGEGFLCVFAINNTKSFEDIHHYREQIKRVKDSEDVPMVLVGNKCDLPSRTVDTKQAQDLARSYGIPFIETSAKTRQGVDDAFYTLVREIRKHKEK
T1 sequence (P01116 1-169 isoform P01116-2 G12V): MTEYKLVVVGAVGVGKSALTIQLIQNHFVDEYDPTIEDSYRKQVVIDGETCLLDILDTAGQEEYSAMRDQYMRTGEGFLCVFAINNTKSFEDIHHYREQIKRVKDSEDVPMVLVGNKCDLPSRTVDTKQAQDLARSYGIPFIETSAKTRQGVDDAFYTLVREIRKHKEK
T3 sequence (P01116 1-169 isoform P01116-2 G12R): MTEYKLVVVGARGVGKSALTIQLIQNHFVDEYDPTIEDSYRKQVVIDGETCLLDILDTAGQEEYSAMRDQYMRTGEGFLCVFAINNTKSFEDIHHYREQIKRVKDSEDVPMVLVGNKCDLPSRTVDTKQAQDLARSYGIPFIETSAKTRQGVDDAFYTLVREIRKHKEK

Consider `CCc1c(F)ccc2cc(O)cc(-c3ncc4c(N5C[C@H]6C[C@@H](C5)C(=O)NC6=O)nc(OC[C@@]56CCCN5C[C@H](F)C6)nc4c3F)c12` [Example 591, (1R,5S)-7-(7-(8-ethyl-7-fluoro-3-hydroxynaphthalen-1-yl)-8-fluoro-2-(((2R,7aS)-2-fluorotetrahydro-1H-pyrrolizin-7a(5H)-yl)methoxy)pyrido[4,3-d]pyrimidin-4-yl)-3,7-diazabicyclo[3.3.1]nonane-2,4-dione], for which the IC50 in experiment [1] (setting [6]) worked out at 245 nM; in experiment [2] (NCI-H460, HTRF pERK), 138 nM; in experiment [3] (setting [7]), 1540 nM; in experiment [4], 357 nM.

On to `CCc1c(F)ccc2cc(O)cc(-c3ncc4c(N5CC6C(=O)NC(=O)C6C5C)nc(OC[C@@]56CCCN5C[C@H](F)C6)nc4c3F)c12` (stereo partly drawn) [Example 590, 5-(7-(8-ethyl-7-fluoro-3-hydroxynaphthalen-1-yl)-8-fluoro-2-(((2R,7aS)-2-fluorohexahydro-1H-pyrrolizin-7a-yl)methoxy)pyrido[4,3-d]pyrimidin-4-yl)-4-methyltetrahydropyrrolo[3,4-c]pyrrole-1,3(2H,3aH)-dione], for which the IC50 in experiment [1] (setting [6]) was 833 nM; at KRas^G12V it was 3 nM; at KRas^G12D it was 2 nM; in experiment [3] (setting [7]), 505 nM; in experiment [4], 494 nM; on KRas^G12R, 2 nM.

With `CCc1c(F)ccc2cc(O)cc(-c3ncc4c(N5CCC[C@@](C)(O)C5)nc(OCC5(CN(C)C)CC5C)nc4c3F)c12` (stereo partly drawn) [Example 702, (3R)-1-(2-((1-((dimethylamino)methyl)-2-methylcyclopropyl)methoxy)-7-(8-ethyl-7-fluoro-3-hydroxynaphthalen-1-yl)-8-fluoropyrido[4,3-d]pyrimidin-4-yl)-3-methylpiperidin-3-ol], the inhibition at 0.1 µM in experiment [1] (Homo sapiens, NCI-H727, 3 h, single point, 100 nM compound, 3 hrs, H727 cells) was determined as 7%; in experiment [5], 37%; in experiment [2] (NCI-H460, 3 h, single point, 100 nM compound, 3 hrs), 61%; in experiment [3] (Homo sapiens, ASPC1, 3 h, single point, 100 nM compound, 3 hrs, AsPC-1 cells) it was 56%. For the same compound, the values for the IC50 in experiment [1] (setting [6]) and in experiment [3] (setting [7]) were 149 nM and 32 nM, respectively.

For the compound `CCc1c(F)ccc2cc(O)cc(-c3ncc4c(NC5CCCc6c(C(=O)N(C)C)nn(C)c65)nc(OC[C@@]56CCCN5C[C@H](F)C6)nc4c3F)c12` (stereo partly drawn) [Example 672, 7-((7-(8-ethyl-7-fluoro-3-hydroxynaphthalen-1-yl)-8-fluoro-2-(((2R,7aS)-2-fluorohexahydro-1H-pyrrolizin-7a-yl)methoxy)pyrido[4,3-d]pyrimidin-4-yl)amino)-N,N,1-trimethyl-4,5,6,7-tetrahydro-1H-indazole-3-carboxamide], the IC50 in experiment [1] (setting [6]) came to 1260 nM; at KRas^G12V, 5 nM; at KRas^G12D, 8 nM; in experiment [3] (setting [7]) it was 469 nM; in experiment [4], 541 nM; on KRas^G12R, 4 nM.

With `CCc1c(F)ccc2cc(O)cc(-c3ncc4c(NC5CC6(CCCO6)C5)nc(OC[C@@]56CCCN5C[C@H](F)C6)nc4c3F)c12` (stereo partly drawn) [Example 554, 4-(4-(5-oxaspiro[3.4]octan-2-ylamino)-8-fluoro-2-(((2R,7aS)-2-fluorohexahydro-1H-pyrrolizin-7a-yl)methoxy)pyrido[4,3-d]pyrimidin-7-yl)-5-ethyl-6-fluoronaphthalen-2-ol], the 50% inhibitory concentration (IC50) in experiment [1] (setting [6]) is 410 nM; on KRas^G12V it was 9 nM; on KRas^G12D, 79 nM; in experiment [3] (setting [7]), 2380 nM; in experiment [4] it was 742 nM; at KRas^G12R, 10 nM.

With `CCc1c(F)ccc2cc(O)cc(-c3ncc4c(N5CCC(Cc6ccn(C)n6)C5)nc(OC[C@@]56CCCN5C[C@H](F)C6)nc4c3F)c12` (stereo partly drawn) [Example 611, 5-ethyl-6-fluoro-4-(8-fluoro-2-(((2R,7aS)-2-fluorotetrahydro-1H-pyrrolizin-7a(5H)-yl)methoxy)-4-(3-((1-methyl-1H-pyrazol-3-yl)methyl)pyrrolidin-1-yl)pyrido[4,3-d]pyrimidin-7-yl)naphthalen-2-ol], the IC50 in experiment [1] (setting [6]) is 1950 nM; at KRas^G12V, 121 nM; on KRas^G12D it was 1530 nM; in experiment [3] (setting [7]), 4470 nM; on KRas^G12R it was 127 nM.

With `O=C1CC2CN(c3nc(OCC45CCCN4CCC5)nc4c(F)c(-c5cccc6cccc(F)c56)ncc34)CCC2C(=O)N1` (stereo not shown) [Example 526, 6-(8-fluoro-7-(8-fluoronaphthalen-1-yl)-2-((hexahydro-1H-pyrrolizin-7a-yl)methoxy)pyrido[4,3-d]pyrimidin-4-yl)hexahydro-2,6-naphthyridine-1,3(2H,4H)-dione], the IC50 was over 10000 nM in experiment [1] (setting [6]); over 100000 nM at KRas^G12V; over 100000 nM at KRas^G12D; over 10000 nM in experiment [3] (setting [7]); 67700 nM at KRas^G12R.

On to `CCc1c(F)ccc2cc(O)cc(-c3ncc4c(N5CCC6(CC5)OCCC6O)nc(OC[C@@]56CCCN5C[C@H](F)C6)nc4c3F)c12` (stereo partly drawn) [Example 600, 8-(7-(8-ethyl-7-fluoro-3-hydroxynaphthalen-1-yl)-8-fluoro-2-(((2R,7aS)-2-fluorotetrahydro-1H-pyrrolizin-7a(5H)-yl)methoxy)pyrido[4,3-d]pyrimidin-4-yl)-1-oxa-8-azaspiro[4.5]decan-4-ol], for which the IC50 was over 10000 nM in experiment [1] (setting [6]); 880 nM on KRas^G12V; 5040 nM at KRas^G12D; over 10000 nM in experiment [3] (setting [7]); 886 nM on KRas^G12R.

With `CCc1c(F)ccc2cc(O)cc(-c3ncc4c(N5CCC[S+]([O-])CC5)nc(OC[C@@]56CCCN5C[C@H](F)C6)nc4c3F)c12` (stereo partly drawn) [Example 558, 4-(7-(8-ethyl-7-fluoro-3-hydroxynaphthalen-1-yl)-8-fluoro-2-(((2R,7aS)-2-fluorohexahydro-1H-pyrrolizin-7a-yl)methoxy)pyrido[4,3-d]pyrimidin-4-yl)-1,4-thiazepane 1-oxide], the IC50 is 603 nM in experiment [1] (setting [6]); under 2 nM at KRas^G12V; under 2 nM on KRas^G12D; 312 nM in experiment [3] (setting [7]); 822 nM in experiment [4]; under 2 nM at KRas^G12R.

In the case of `CCc1c(F)ccc2cc(O)cc(-c3ncc4c(NCc5cc(C(=O)N(C)C)n([C@H]6C[C@@H](O)C6)n5)nc(OC[C@@]56CCCN5C[C@H](F)C6)nc4c3F)c12` [Example 681, 3-(((7-(8-ethyl-7-fluoro-3-hydroxynaphthalen-1-yl)-8-fluoro-2-(((2R,7aS)-2-fluorohexahydro-1H-pyrrolizin-7a-yl)methoxy)pyrido[4,3-d]pyrimidin-4-yl)amino)methyl)-1-(cis-3-hydroxycyclobutyl)-N,N-dimethyl-1H-pyrazole-5-carboxamide], the IC50 in experiment [1] (setting [6]) was over 10000 nM; at KRas^G12V, 51 nM; at KRas^G12D it was 497 nM; in experiment [3] (setting [7]), over 10000 nM; on KRas^G12R it was 167 nM.

As to `CCc1c(F)ccc2cc(O)cc(-c3ncc4c(N[C@H](C)CN5CC(C)(O)C5)nc(OC[C@@]56CCCN5C[C@H](F)C6)nc4c3F)c12` [Example 577, 1-((R)-2-((7-(8-ethyl-7-fluoro-3-hydroxynaphthalen-1-yl)-8-fluoro-2-(((2R,7aS)-2-fluorohexahydro-1H-pyrrolizin-7a-yl)methoxy)pyrido[4,3-d]pyrimidin-4-yl)amino)propyl)-3-methylazetidin-3-ol], the IC50 in experiment [1] (setting [6]) is over 10000 nM; on KRas^G12V, 606 nM; at KRas^G12D, 29 nM; in experiment [3] (setting [7]), 8440 nM; on KRas^G12R, 727 nM.

In the case of `CCc1c(F)ccc2cc(O)cc(-c3ncc4c(N5CCCC(C6CCNC6=O)C5)nc(OC[C@@]56CCCN5C[C@H](F)C6)nc4c3F)c12` (single isomer, unassigned) [Example 617], the concentration for half-maximal inhibition (IC50) in experiment [1] (H727 cells) turned out to be 763 nM; on KRas^G12V it was 4 nM; at KRas^G12D it was 9 nM; in experiment [3] (AsPC-1 cells), 1550 nM; on KRas^G12R, 4 nM.

The values are drawn from patent US20260015350A1, “AZAQUINAZOLINE PAN-KRAS INHIBITORS” (Mirati Therapeutics, Inc., priority 2022, published 2026).
